# Source: ChEMBL document CHEMBL1144831, “Pyrano-[2,3b]-pyridines as potassium channel antagonists” (Bioorg Med Chem Lett, 2008)
# pIC50: −log10 of the molar value.
# Key:
# [1] = target: T1, Potassium voltage-gated channel subfamily A member 5 (Homo sapiens, UniProt P22460); assay: Inhibition of human Kv1.5 channel expressed in mouse L929 cells assessed as blockade of ultra rapidly activating potassium current at 1 uM by voltage clamp technique; format: cell-based
# [2] = target: T1, Potassium voltage-gated channel subfamily A member 5; assay: Inhibition of human Kv1.5 channel expressed in mouse L929 cells assessed as blockade of ultra rapidly activating potassium current by voltage clamp technique; format: cell-based
# [3] = Aqueous solubility at pH 6.5; format: physicochemical
# T1 sequence (P22460 whole entry): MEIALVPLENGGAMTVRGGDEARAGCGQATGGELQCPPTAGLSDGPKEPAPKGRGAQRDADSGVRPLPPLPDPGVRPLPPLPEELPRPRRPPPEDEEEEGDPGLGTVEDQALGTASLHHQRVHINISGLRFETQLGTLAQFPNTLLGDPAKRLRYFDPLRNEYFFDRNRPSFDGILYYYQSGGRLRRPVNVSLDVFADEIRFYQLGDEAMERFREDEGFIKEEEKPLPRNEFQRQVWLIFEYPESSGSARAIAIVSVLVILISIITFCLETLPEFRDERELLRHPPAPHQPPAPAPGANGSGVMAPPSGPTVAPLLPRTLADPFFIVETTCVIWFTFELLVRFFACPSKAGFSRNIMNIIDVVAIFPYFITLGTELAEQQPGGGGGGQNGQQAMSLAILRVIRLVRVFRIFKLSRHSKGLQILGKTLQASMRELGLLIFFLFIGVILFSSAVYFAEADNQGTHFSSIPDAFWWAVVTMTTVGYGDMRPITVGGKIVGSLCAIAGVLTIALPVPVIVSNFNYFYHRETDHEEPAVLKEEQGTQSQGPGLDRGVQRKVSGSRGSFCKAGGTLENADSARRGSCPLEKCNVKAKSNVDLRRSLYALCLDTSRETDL
Structure (SMILES),inhibition [1] [%],pIC50 [2],solubility [3] [µg/mL]
CCc1ccc(S(=O)(=O)N[C@@H]2c3cc(C(=O)NCc4ccccc4)cnc3OC(C)(C)[C@H]2O)cc1 (racemic),17,,
CCc1ccc(S(=O)(=O)N[C@H]2CCCc3ccc(N(Cc4cccc(C)n4)C(=O)CCc4ccccc4)cc32)cc1,,7.34,
CCc1ccc(S(=O)(=O)N[C@@H]2c3cc(C(=O)N(C)Cc4ccccc4)cnc3OC(C)(C)[C@H]2O)cc1 (racemic),12,,
CCc1ccc(S(=O)(=O)N[C@@H]2c3cc(C(=O)N(CC)c4ccccc4)cnc3OC(C)(C)[C@H]2O)cc1 (racemic),89,6.42,108
CCc1ccc(S(=O)(=O)N[C@@H]2c3cc(C(=O)N(CC)Cc4cccc(OC)c4)cnc3OC(C)(C)[C@H]2O)cc1 (racemic),23,,
CCc1ccc(S(=O)(=O)N[C@@H]2c3cc(C(=O)NCc4ccccc4F)cnc3OC(C)(C)[C@H]2O)cc1 (racemic),4,,
CCc1ccc(S(=O)(=O)N[C@@H]2c3cc(C(=O)Nc4nnc(C(F)(F)F)s4)cnc3OC(C)(C)[C@H]2O)cc1 (racemic),3,,
CCc1ccc(S(=O)(=O)N[C@@H]2c3cc(C(=O)N(CC)c4cccc(C)c4)cnc3OC(C)(C)[C@H]2O)cc1 (racemic),58,6.11,
CCc1ccc(S(=O)(=O)N[C@@H]2c3cc(C(=O)N(CC)Cc4ccc(C)cc4)cnc3OC(C)(C)[C@H]2O)cc1 (racemic),15,5.81,
CCc1ccc(S(=O)(=O)N[C@@H]2c3cc(C(=O)N(CC)Cc4c(F)cccc4Cl)cnc3OC(C)(C)[C@H]2O)cc1 (racemic),54,6.21,
CCc1ccc(S(=O)(=O)N[C@@H]2c3cc(C(=O)N(CC)Cc4ccccc4OC)cnc3OC(C)(C)[C@H]2O)cc1 (racemic),35,5.68,
CCc1ccc(S(=O)(=O)N[C@@H]2c3cc(C(=O)N4CCN=C4c4ccccc4)cnc3OC(C)(C)[C@H]2O)cc1 (racemic),2,,
CCc1ccc(S(=O)(=O)N[C@@H]2c3cc(C(=O)Nc4ccc(Br)cc4)cnc3OC(C)(C)[C@H]2O)cc1 (racemic),8,,
CCc1ccc(S(=O)(=O)N[C@@H]2c3cc(C(=O)N(CC)Cc4ccc(OC)cc4)cnc3OC(C)(C)[C@H]2O)cc1 (racemic),70,6.22,
CCc1ccc(S(=O)(=O)N[C@@H]2c3cc(C(=O)Nc4cc(NC(C)=O)n[nH]4)cnc3OC(C)(C)[C@H]2O)cc1 (racemic),31,,
CCc1ccc(S(=O)(=O)N[C@@H]2c3cc(C(=O)Nc4ccc(Br)cc4)ccc3OC(C)(C)[C@H]2O)cc1 (racemic),73,6.50,
CCc1ccc(S(=O)(=O)N[C@@H]2c3cc(C(=O)N(CC)c4cc(F)ccc4F)cnc3OC(C)(C)[C@H]2O)cc1 (racemic),52,6.04,
CCc1ccc(S(=O)(=O)N[C@@H]2c3cc(C(=O)N4CCc5ccccc54)cnc3OC(C)(C)[C@H]2O)cc1 (racemic),30,,
CCc1ccc(S(=O)(=O)N[C@@H]2c3cc(C(=O)N(CC)Cc4ccccc4F)ccc3OC(C)(C)[C@H]2O)cc1 (racemic),,,10
CCc1ccc(S(=O)(=O)N[C@@H]2c3cc(C(=O)N(C)c4ccccc4)cnc3OC(C)(C)[C@H]2O)cc1 (racemic),12,,
CCc1ccc(S(=O)(=O)N[C@@H]2c3cc(C(=O)N(CC)c4cccc(Cl)c4)cnc3OC(C)(C)[C@H]2O)cc1 (racemic),64,6.19,
CCc1ccc(S(=O)(=O)N[C@@H]2c3cc(C(=O)N(CC)Cc4ccccc4)cnc3OC(C)(C)[C@H]2O)cc1 (racemic),20,,
CCc1ccc(S(=O)(=O)N[C@@H]2c3cc(C(=O)N4CCC[C@H]4CNc4c(C)cccc4C)cnc3OC(C)(C)[C@H]2O)cc1 (racemic),15,,
CCc1ccc(S(=O)(=O)N[C@@H]2c3cc(C(=O)N(C)c4ccccc4)ccc3OC(C)(C)[C@H]2O)cc1 (racemic),87,,
CCc1ccc(S(=O)(=O)N[C@@H]2c3cc(C(=O)N(CC)c4ccc(OC)cc4)cnc3OC(C)(C)[C@H]2O)cc1 (racemic),22,,
CCc1ccc(S(=O)(=O)N[C@@H]2c3cc(NC(=O)c4cccc(OC)c4)ccc3C[C@H]2O)cc1,,7.30,
CCc1ccc(S(=O)(=O)N[C@@H]2c3cc(C(=O)N4CCC[C@H]4CNc4c(C)cccc4C)ccc3OC(C)(C)[C@H]2O)cc1 (racemic),,7.22,
